Results from patent US20050137251A1, “Dexanabinol and dexanabinol analogs regulate inflammation related genes” (priority 2002, published 2005).

Columns and labels:
IL-2 secretion = IL-2 secretion (ELISA) in activated Jurkat T cells; format: cell-based; conditions: Homo sapiens, supernatant 24 hours after activation, read-out: IC50 for inhibition of IL-2 secretion
Text: The technique used to quantify the amount of a given protein in a liquid sample, either tissue culture supernatant or body fluid, is based on Enzyme Linked ImmunoSorbent Assay (ELISA) methodology. Either commercially available or established in house, the assay is based on the capture of the protein of interest by specific antibodies bound to the bottom of an ELISA plate well. Unbound material is washed away, the captured protein is then exposed to a secondary antibody generally labeled with horseradish peroxidase (HRP) or alkaline phosphatase (ALP). Again the unbound material is washed away, the samples are then incubated with the appropriate substrate yielding a colorimetric reaction. The reaction is stopped and reading is carried out in a spectrophotometer at the appropriate wavelength. […] Concentration of the protein in the sample is calculated from the standard curve. […]
In parallel, the supernatant from each well was collected 24 hours after the activation and analyzed for the presence of secreted IL-2 by ELISA. […] The absorbance measured at 450 nm is proportional to the concentration of IL-2 in the sample or standard. A standard curve is obtained by plotting the concentrations of recombinant IL-2 standards versus their absorbances. The IL-2 concentrations in experimental samples are then determined using the standard curve.

IL-1β secretion = IL-1β secretion in LPS activated macrophages; format: cell-based; conditions: Mus musculus, Macrophage, read-out: IC50 for inhibition of IL-1β secretion
Text: (§1) The technique used to quantify the amount of a given protein in a liquid sample, either tissue culture supernatant or body fluid, is based on Enzyme Linked ImmunoSorbent Assay (ELISA) methodology. Either commercially available or established in house, the assay is based on the capture of the protein of interest by specific antibodies bound to the bottom of an ELISA plate well. Unbound material is washed away, the captured protein is then exposed to a secondary antibody generally labeled with horseradish peroxidase (HRP) or alkaline phosphatase (ALP). Again the unbound material is washed away, the samples are then incubated with the appropriate substrate yielding a colorimetric reaction. The reaction is stopped and reading is carried out in a spectrophotometer at the appropriate wavelength. Samples are tested at least in duplicate and the appropriate standard curve, consisting of serial dilutions of the recombinant target protein, is incorporated on each plate. Concentration of the protein in the sample is calculated from the standard curve.
(§2) RAW 264.7 macrophages, a mouse cell line (ATCC # TIB 71), were grown in Dulbecco's modified Eagle's medium (DMEM) with 4 mM L-glutamine adjusted to contain 1.5 g/L sodium bicarbonate, 4.5 g/L glucose, and 10% heat inactivated fetal bovine serum. […]

IL-6 gene expression = IL-6 gene expression in MCAo mice brains; conditions: 5 mg/kg i.v., 18 hrs following MCAo
Aspc-1 = Aspc-1 pancreatic tumor cell proliferation (crystal violet); format: cell-based; conditions: up to 15 μM, 24 hours
Method: Cells from several tumor-derived cell lines are tested for their proliferation capacity in presence of our test compounds. Pancreatic tumor cell lines were obtained from ATCC. Panc-1 (ATCC # CRL-1469) were cultured in DMEM supplemented with 4 mM Glutamine, 4.5 g/L glucose, 1.5 g/L bicarbonate, antibiotics (penicillin, nystatin and streptomycin) and 10% heat inactivated fetal calf serum. Aspc-1 (ATCC # CRL-1682) were cultured in RPMI supplemented with 2 mM Glutamine, 10 mM HEPES, 1 mM sodium pyruvate, 4.5 g/L glucose, 1.5 g/L bicarbonate, antibiotics (penicillin, nystatin and streptomycin) and 20% heat inactivated fetal calf serum. Cells were seeded in a 24 well plate (10^5 cells/ml/well) and grown overnight. The cells are incubated with the test compounds (1-100 μM) or vehicle (0.1% DMSO final concentration). Cell viability was determined 24 hours later using standard crystal violet staining. The culture medium was removed from the wells and the cells were fixed by adding 1 ml/well of 2% formaldehyde in PBS for 10 minutes. […] The plates were agitated for 15 minutes at room temperature and 100 μl were transferred in duplicate to a 96 well plate for reading. Optical density (OD) of the cells was measured at 620 nm in an ELISA reader and results are expressed as % viable cells. Absorbance of untreated cells is recorded as 100%.

TNF-α secretion = TNF-α secretion in LPS activated macrophages; format: cell-based; conditions: Mus musculus, Macrophage, read-out: IC50 for inhibition of TNF-α secretion
Text: as §1, §2

IL-1β gene expression = IL-1β gene expression in MCAo mice brains; conditions: 5 mg/kg i.v., 18 hrs following MCAo
iNOS gene expression = iNOS gene expression in MCAo mice brains; conditions: 5 mg/kg i.v., 18 hrs following MCAo

CCCCCCC(C)(C)c1cc(O)c2c(c1)OC(C)(C)[C@H]1CC=C(CO)C[C@H]21 [dexanabinol, 1,1-dimethylheptyl-(3S,4S)-7-hydroxy-Δ^6-tetrahydrocannabinol]
IC50 (IL-2 secretion): 8 µM
IC50 (IL-1β secretion): 6 µM
Modulation of IL-6 gene expression (IL-6 gene expression): not modulated
Effect on Aspc-1 proliferation (Aspc-1): not affected
IC50 (TNF-α secretion): 10 to 20 µM
Modulation of IL-1β gene expression (IL-1β gene expression): not modulated
Modulation of iNOS gene expression (iNOS gene expression): not modulated
